One assay addresses T1, KDM4B (JMJD2B) (Homo sapiens, UniProt O94953).
T1 construct: 2-500; purchased BPS; host or cells: Bac (baculovirus system)
T1 sequence (O94953 2-500): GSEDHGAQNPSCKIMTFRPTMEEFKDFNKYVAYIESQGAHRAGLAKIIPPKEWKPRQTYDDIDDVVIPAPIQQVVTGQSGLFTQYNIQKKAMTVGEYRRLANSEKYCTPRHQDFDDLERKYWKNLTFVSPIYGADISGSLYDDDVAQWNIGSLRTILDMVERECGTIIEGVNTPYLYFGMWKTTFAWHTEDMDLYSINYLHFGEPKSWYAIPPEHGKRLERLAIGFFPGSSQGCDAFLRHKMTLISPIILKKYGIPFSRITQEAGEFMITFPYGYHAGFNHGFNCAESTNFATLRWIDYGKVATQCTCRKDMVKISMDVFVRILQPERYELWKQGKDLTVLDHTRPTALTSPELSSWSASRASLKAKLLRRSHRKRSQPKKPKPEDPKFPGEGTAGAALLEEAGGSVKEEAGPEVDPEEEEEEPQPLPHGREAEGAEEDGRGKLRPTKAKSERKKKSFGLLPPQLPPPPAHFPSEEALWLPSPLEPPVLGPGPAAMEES
The assay can be described thus: Histone lysine demethylase AlphaLISA assay, KDM4B. In kind it is biochemical. Particulars: read-out: KDM4B HDME Inhibition IC50. In short, it runs like this: (§1)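 Enzyme 10 min pre-incubation; + compound (3% DMSO soln) 10 min; + biotin-H3 methyl-Lys peptide, 25 μM L-Asc, 10 μM α-KG, RT. Read: AlphaLISA acceptor beads, then streptavidin donor beads, RT, dark.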

A further assay deals with KDM6A (UTX) (Homo sapiens, UniProt O15550). The assay can be described thus: Histone lysine demethylase AlphaLISA assay, KDM6A. In kind it is biochemical. Particulars: read-out: KDM6A HDME Inhibition IC50. In short, it runs like this:
as §1

In the next assay the test system is H3K4me3 mark. The assay can be described thus: Histone lysine demethylase immunofluorescence assay, non-transfected U2OS cells. It is filed as cell-based. To be noted: Homo sapiens, staining of the H3K4me3 mark, 20 hours incubation with compound. The method, boiled down: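 Non-transfected U2OS cells incubated with compounds 20 h in DMEM/5% FBS. Fixed cells immunostained for H3K4me3 with Hoechst counterstain and imaged by high-throughput microscopy. IC50 based on average cellular H3K4me3 staining.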

The test system of the next assay is MCF7 cells. The assay can be described thus: Cell proliferation assay MCF7. In kind it is cell-based. Particulars: MCF7 human breast cancer cells; 120 hours; ATPlite 1 Step. The method, boiled down:
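After 120 h of compound exposure (duplicates, DMSO at most 0.5%) in DMEM GlutaMAX with 10% FBS, ATPlite 1 Step luminescence measured cellular ATP. Compound was added 24 h after seeding, at a density chosen for ~90% confluence at the end.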

This passage reports IC50 and EC50 results from patent US9650339B2, “Inhibitors of histone demethylases” (Gilead Sciences, Inc., priority 2013, dated 2017).

Sequence of KDM6A (UTX) (O15550 919-1401): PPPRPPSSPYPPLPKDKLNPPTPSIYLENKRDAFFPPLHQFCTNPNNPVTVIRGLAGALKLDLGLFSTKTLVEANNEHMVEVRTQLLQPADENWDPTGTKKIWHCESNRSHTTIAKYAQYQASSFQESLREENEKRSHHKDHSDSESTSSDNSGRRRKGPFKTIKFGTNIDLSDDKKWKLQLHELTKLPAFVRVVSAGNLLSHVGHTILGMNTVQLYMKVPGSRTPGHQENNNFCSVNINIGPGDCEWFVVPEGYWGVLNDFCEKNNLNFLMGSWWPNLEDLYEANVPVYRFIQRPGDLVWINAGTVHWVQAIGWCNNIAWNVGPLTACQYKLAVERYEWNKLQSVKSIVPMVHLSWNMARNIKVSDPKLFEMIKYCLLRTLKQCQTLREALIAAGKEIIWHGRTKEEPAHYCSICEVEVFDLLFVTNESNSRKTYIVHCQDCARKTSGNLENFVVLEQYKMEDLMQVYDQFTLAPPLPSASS

On to `CN(C)CC1CCC(CNCc2cc(/C=N/C3CC3)ccn2)CC1` (centres unmarked) [Compound 46, N-[(2-{[({4-[(dimethylamino)-methyl]cyclohexyl}-methyl)amino]-methyl}pyridin-4-yl)methylidene]-cyclopropanamine], for which the IC50 was 250 to 2500 nM at KDM4B (JMJD2B), over 2500 nM on KDM6A (UTX) and under 250 nM with H3K4me3 mark. For the same molecule, the concentration giving a half-maximal response (EC50) in the assay on MCF7 cells was under 250 nM.

For `CON=Cc1ccnc(CNCCCN(C)C)c1` [Compound 64, [3-(dimethylamino)-propyl]({4-[(methoxyimino)-methyl]pyridin-2-yl}methyl)amine], the IC50 at KDM4B (JMJD2B) was under 250 nM; at KDM6A (UTX), over 2500 nM; in the assay on H3K4me3 mark it was 250 to 2500 nM. In addition, in the assay with MCF7 cells, the EC50 was over 2500 nM.

For the molecule `CCN(CCN(C)C)C(=O)CNCc1cc(C=O)ccn1` [Compound 101], the values for the IC50 on KDM4B (JMJD2B), on KDM6A (UTX) and in the assay with H3K4me3 mark were under 250 nM, over 2500 nM and under 250 nM, respectively. In the assay on MCF7 cells, this molecule displayed a half-maximal effective concentration (EC50) of under 250 nM.

On to `CCN(CC)C(=O)CNCc1cc(/C=N/CCC2CCCCC2)ccn1` [Compound 57, 2-[({4-[[(2-cyclohexylethyl)imino]-methyl]pyridin-2-yl}methyl)amino]-N,N-diethylacetamide], for which the IC50 was under 250 nM at KDM4B (JMJD2B), over 2500 nM at KDM6A (UTX) and 250 to 2500 nM in the assay on H3K4me3 mark. This molecule returned an EC50 in the assay on MCF7 cells of over 2500 nM.

Consider `CCN(CCN(C)C)C(=O)CNCc1cc(CN)ccn1` [Compound 4, 2-({[4-(aminomethyl)pyridin-2-yl]methyl}amino)-N-[2-(dimethylamino)ethyl]-N-ethylacetamide], for which the IC50 on KDM4B (JMJD2B) was under 250 nM; at KDM6A (UTX), over 2500 nM; with H3K4me3 mark, under 250 nM. In the assay with MCF7 cells, this molecule showed an EC50 of under 250 nM.
